Measured values reported in ChEMBL document CHEMBL2176973, “Synthesis and SAR Studies of Fused Oxadiazines as γ-Secretase Modulators for Treatment of Alzheimer's Disease” (ACS Med Chem Lett, 2012).
Activity calls are given as the source filed them. The rule behind the calls is not given here.

Legend:
Gamma-secretase = test: Modulation of gamma-secretase expressed in HEK293 cells co-expressing APPsw-lon assessed as reduction of amyloid-beta-42 level by sandwich immunoassay; type: cell-based, Homo sapiens
[1] = target: T1, Gamma-secretase (Homo sapiens) (UniProt Q96BI3+Q9NZ42+Q8WW43+P49768+Q92542+P49810); test: Modulation of gamma-secretase expressed in HEK293 cells co-expressing APPsw-lon assessed as reduction of total amyloid beta/amyloid-beta-42 ratio by sandwich immunoassay; type: cell-based
[2] = AUC (0 to 6 hrs) in rat plasma at 10 mg/kg, po; type: ADME, organism-based; design: time < 6 hr, dose 10 mg/kg, route oral
[3] = Plasma concentration in rat at 10 mg/kg, po after 3 hrs; type: ADME, organism-based; design: dose 10 mg/kg, route oral
Rattus norvegicus [4] = test: Antialzheimer's activity in rat assessed as reduction of amyloid-beta-42 level in CSF at 10 mg/kg, po after 3 hrs by AlphaLISA amyloid assay; type: functional
[5] = Drug level in rat brain at 10 mg/kg, po after 3 hrs; type: ADME, organism-based; design: dose 10 mg/kg, route oral; conditions: read-out: Drug uptake
[6] = Ratio of drug level in brain to plasma rat at 10 mg/kg, po after 6 hrs; type: ADME, organism-based; design: dose 10 mg/kg, route oral; conditions: read-out: BPR
[7] = Drug level in rat brain at 10 mg/kg, po after 6 hrs; type: ADME, organism-based; design: dose 10 mg/kg, route oral; conditions: read-out: Drug uptake
Caco-2 = test: Permeability across human Caco2 cells; type: ADME, cell-based
[8] = Volume of distribution at steady state in rat; type: ADME, organism-based; conditions: in vivo, read-out: Vdss
[9] = Half life in rat; type: ADME, organism-based; conditions: in vivo
Rattus norvegicus [10] = test: Antialzheimer's activity in po dosed rat assessed as reduction of amyloid-beta-42 level in CSF after 3 hrs by AlphaLISA amyloid assay; type: functional, organism-based
[11] = Clearance in rat; type: ADME, organism-based; conditions: in vivo
Rattus norvegicus [12] = species on record: Rattus norvegicus; test: Toxicity in rat assessed as Notch-related side effects; type: organism-based; conditions: in vivo
[13] = Oral bioavailability in rat; type: ADME, organism-based; conditions: in vivo
Rattus norvegicus [14] = species on record: Rattus norvegicus; test: Toxicity in rat assessed as biomarker changes; type: organism-based; conditions: in vivo
Canis familiaris = species on record: Canis familiaris; test: Cardiotoxicity in dog assessed as effect on QTc intervals; type: toxicity, organism-based, Canis lupus familiaris; conditions: in vivo
[15] = Activity at p-glycoprotein
[16] = target: T1, Gamma-secretase (Homo sapiens); test: Modulation of gamma-secretase-mediated Notch processing expressed in HEK293 cells co-expressing human Notch1 protein up to 50 uM; type: cell-based
hERG (KCNH2) = hERG (KCNH2) (Homo sapiens, UniProt Q12809); test: Inhibition of human ERG at 10 uM
[17] = target: T2, Nuclear receptor subfamily 1 group I member 2 (Homo sapiens, UniProt O75469); test: Induction of PXR
T2 sequence (O75469 whole entry): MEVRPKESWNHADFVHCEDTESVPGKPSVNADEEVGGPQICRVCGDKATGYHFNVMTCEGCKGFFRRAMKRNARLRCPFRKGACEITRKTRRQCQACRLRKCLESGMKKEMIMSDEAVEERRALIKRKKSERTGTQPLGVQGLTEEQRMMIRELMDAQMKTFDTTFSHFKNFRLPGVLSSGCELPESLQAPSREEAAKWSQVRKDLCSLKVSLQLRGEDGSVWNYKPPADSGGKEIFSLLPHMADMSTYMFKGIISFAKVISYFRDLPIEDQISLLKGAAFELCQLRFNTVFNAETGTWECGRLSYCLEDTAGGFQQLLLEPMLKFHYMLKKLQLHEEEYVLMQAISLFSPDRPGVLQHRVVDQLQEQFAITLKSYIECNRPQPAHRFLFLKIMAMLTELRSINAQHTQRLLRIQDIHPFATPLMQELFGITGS

[18] = Inhibition of CYP450; type: ADME

hERG (KCNH2), sequence (Q12809 whole entry): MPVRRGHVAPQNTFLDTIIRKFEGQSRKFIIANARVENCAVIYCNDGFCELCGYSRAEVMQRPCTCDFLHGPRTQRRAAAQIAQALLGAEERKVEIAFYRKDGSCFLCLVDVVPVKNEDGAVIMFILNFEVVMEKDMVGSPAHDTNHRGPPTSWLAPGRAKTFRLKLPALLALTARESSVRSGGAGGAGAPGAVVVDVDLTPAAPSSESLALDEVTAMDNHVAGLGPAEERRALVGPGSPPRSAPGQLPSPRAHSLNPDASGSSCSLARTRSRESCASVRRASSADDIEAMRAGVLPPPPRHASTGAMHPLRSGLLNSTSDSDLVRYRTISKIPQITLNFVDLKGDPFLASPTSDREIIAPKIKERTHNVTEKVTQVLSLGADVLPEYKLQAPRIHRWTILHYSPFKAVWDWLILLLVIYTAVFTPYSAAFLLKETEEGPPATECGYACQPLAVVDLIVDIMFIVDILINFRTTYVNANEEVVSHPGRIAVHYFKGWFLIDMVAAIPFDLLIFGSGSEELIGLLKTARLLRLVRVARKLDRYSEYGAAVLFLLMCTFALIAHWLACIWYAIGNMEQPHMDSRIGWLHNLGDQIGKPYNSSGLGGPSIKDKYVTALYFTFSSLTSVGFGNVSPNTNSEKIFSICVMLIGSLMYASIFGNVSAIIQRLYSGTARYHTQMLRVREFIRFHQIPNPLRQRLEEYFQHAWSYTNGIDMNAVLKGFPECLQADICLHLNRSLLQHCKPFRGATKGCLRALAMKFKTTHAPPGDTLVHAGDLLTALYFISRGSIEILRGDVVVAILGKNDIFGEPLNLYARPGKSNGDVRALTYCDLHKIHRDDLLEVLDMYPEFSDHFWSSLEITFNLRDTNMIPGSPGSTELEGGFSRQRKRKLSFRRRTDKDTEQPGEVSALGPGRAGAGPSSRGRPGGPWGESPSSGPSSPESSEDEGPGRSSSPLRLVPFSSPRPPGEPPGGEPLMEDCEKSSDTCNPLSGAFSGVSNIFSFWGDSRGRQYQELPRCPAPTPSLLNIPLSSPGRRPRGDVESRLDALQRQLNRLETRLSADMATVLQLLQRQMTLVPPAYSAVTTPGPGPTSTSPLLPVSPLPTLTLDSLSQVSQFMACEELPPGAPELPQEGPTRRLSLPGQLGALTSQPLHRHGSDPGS

COc1cc(/C=C2\O[C@@H](C)CN3C2=NOC[C@@H]3c2cc(F)c(F)c(F)c2)ccc1-n1cnc(C)c1
IC50 (Gamma-secretase): 0.046 µM
Ratio [1]: 320

COc1cc(/C=C2\CCCN3CC(Cc4ccccc4)ON=C23)ccc1-n1cnc(C)c1 (racemic)
IC50 (Gamma-secretase): 0.083 µM
Ratio [1]: 241

COc1cc(/C=C2\CCCN3C2=NOC[C@@H]3CS(C)(=O)=O)ccc1-n1cnc(C)c1
IC50 (Gamma-secretase): 19 µM
Ratio [1]: 1

COc1cc(/C=C2\CCCN3C2=NOC32CCOc3ccc(F)cc32)ccc1-n1cnc(C)c1 (stereo not drawn)
IC50 (Gamma-secretase): 0.058 µM
Ratio [1]: 223

COc1cc(/C=C2\CCCN3C2=NOC[C@@H]3c2ccc(F)cc2)ccc1-n1cnc(C)c1
AUC(0-t) at 6 h [2]: 86.5 µM·h
IC50 (Gamma-secretase): 0.037 µM
concentration at 3 h [3]: 6.7 µM
inhibition in vivo at 10 mg/kg (Rattus norvegicus [4]): 53%
Ratio [1]: 385
concentration at 3 h [5]: 7.7 µM
Kp at 6 h [6]: 0.8
concentration at 6 h [7]: 2850 ng/g

COc1cc(/C=C2\CCCN3C2=NOCC3C(O)c2ccc(Cl)cc2)ccc1-n1cnc(C)c1 (stereo not drawn)
IC50 (Gamma-secretase): 0.3 µM
Ratio [1]: 49

COc1cc(/C=C2\CCCN3C2=NOCC32CCOc3ccc(F)cc32)ccc1-n1cnc(C)c1 (racemic)
IC50 (Gamma-secretase): 0.4 µM
Ratio [1]: 50

COc1cc(/C=C2\O[C@@H](C)CN3C2=NOC[C@@H]3c2cc(F)cc(F)c2)ccc1-n1cnc(C)c1
IC50 (Gamma-secretase): 0.035 µM
Ratio [1]: 550

COc1cc(/C=C2\CCCN3C2=NOC[C@@H]3c2cc(F)c(OC)c(F)c2)ccc1-n1cnc(C)c1
AUC(0-t) at 6 h [2]: 22.7 µM·h
IC50 (Gamma-secretase): 0.044 µM
concentration at 3 h [3]: 6.3 µM
inhibition in vivo at 10 mg/kg (Rattus norvegicus [4]): 26%
Ratio [1]: 459
Kp at 6 h [6]: 1.1
concentration at 6 h [7]: 268 ng/g

COc1cc(/C=C2\CCCN3C2=NOC[C@@H]3C2CCOCC2)ccc1-n1cnc(C)c1
IC50 (Gamma-secretase): 1.9 µM
Ratio [1]: 11

COc1cc(/C=C2\CCCN3CC(c4ccccc4)ON=C23)ccc1-n1cnc(C)c1 (racemic)
IC50 (Gamma-secretase): 0.21 µM
Ratio [1]: 91

COc1cc(/C=C2\CCCN3C2=NOC[C@@H]3C(C)C)ccc1-n1cnc(C)c1
IC50 (Gamma-secretase): 0.53 µM
Ratio [1]: 34

COc1cc(/C=C2\CCCN3CC(C(O)c4cc(F)cc(F)c4)ON=C23)ccc1-n1cnc(C)c1 (racemic)
IC50 (Gamma-secretase): 0.076 µM
Ratio [1]: 265

COc1cc(/C=C2\CCCN3C2=NOC[C@@H]3CO)ccc1-n1cnc(C)c1
IC50 (Gamma-secretase): 3.3 µM
Ratio [1]: 6

COc1cc(/C=C2\CCCN3CC(c4nccn4C)ON=C23)ccc1-n1cnc(C)c1 (racemic)
IC50 (Gamma-secretase): 6.7 µM
Ratio [1]: 3

COc1cc(/C=C2\CCCN3C(=O)C(c4cc(F)cc(F)c4)ON=C23)ccc1-n1cnc(C)c1 (racemic)
IC50 (Gamma-secretase): 1.1 µM
Ratio [1]: 18

COc1cc(/C=C2\CCCN3CC(c4cnccn4)ON=C23)ccc1-n1cnc(C)c1 (racemic)
IC50 (Gamma-secretase): 9 µM
Ratio [1]: 2

COc1cc(/C=C2\CCCN3CC(CO[Si](c4ccccc4)(c4ccccc4)C(C)(C)C)ON=C23)ccc1-n1cnc(C)c1 (racemic)
IC50 (Gamma-secretase): 0.056 µM
Ratio [1]: 80

COc1cc(/C=C2\CCCN3CC(c4cccc5ccccc45)ON=C23)ccc1-n1cnc(C)c1 (racemic)
IC50 (Gamma-secretase): 0.13 µM
Ratio [1]: 158

COc1cc(/C=C2\CCCN3C2=NOC3(C)c2ccc(F)cc2)ccc1-n1cnc(C)c1 (stereo not drawn)
IC50 (Gamma-secretase): 0.058 µM
Ratio [1]: 237

COc1cc(/C=C2\CCCN3C2=NOC[C@@H]3c2cc(F)c(F)c(F)c2)ccc1-n1cnc(C)c1
AUC(0-t) at 6 h [2]: 87.4 µM·h
IC50 (Gamma-secretase): 0.033 µM
concentration at 3 h [3]: 10.7 µM
permeability (Caco-2): permeable
Vd [8]: 0.4 L/kg
half-life [9]: 3.5 h
inhibition (Rattus norvegicus [10]): Dose-dependent effect
clearance [11]: 1.4 mL/min/kg
inhibition in vivo at 10 mg/kg (Rattus norvegicus [4]): 62%
Activity (Rattus norvegicus [12]): Non-toxic
bioavailability [13]: 100%
Activity (Rattus norvegicus [14]): Non-toxic
Ratio [1]: 607
Activity (Canis familiaris): Non-toxic
Kp at 6 h [6]: 0.4
concentration at 6 h [7]: 2910 ng/g
Activity [15]: inactive
Activity [16]: inactive
inhibition at 10 µM (hERG (KCNH2)): 76%

COc1cc(/C=C2\CCCN3C2=NOC[C@@H]3CN2CCOCC2)ccc1-n1cnc(C)c1
IC50 (Gamma-secretase): 3.7 µM
Ratio [1]: 5

COc1cc(/C=C2\CCCN3C2=NOC[C@@H]3CC(=O)N2CCCCC2)ccc1-n1cnc(C)c1
IC50 (Gamma-secretase): 1.5 µM
Ratio [1]: 13

COc1cc(/C=C2\CCCN3C2=NOC[C@@H]3Cc2ccccc2)ccc1-n1cnc(C)c1
IC50 (Gamma-secretase): 0.08 µM
Ratio [1]: 238

COc1cc(/C=C2\CCCN3C2=NOCC3(CO)c2ccc(F)cc2)ccc1-n1cnc(C)c1 (racemic)
IC50 (Gamma-secretase): 13.3 µM
Ratio [1]: 2

COc1cc(/C=C2\O[C@H](C)CN3C2=NOC[C@@H]3c2cc(F)cc(F)c2)ccc1-n1cnc(C)c1
IC50 (Gamma-secretase): 0.016 µM
Ratio [1]: 1220

CCc1csc(C[C@H]2CON=C3/C(=C/c4ccc(-n5cnc(C)c5)c(OC)c4)CCCN32)n1
IC50 (Gamma-secretase): 6.4 µM
Ratio [1]: 3

COc1cc(/C=C2\CCCN3C2=NOC[C@@H]3CC(C)C)ccc1-n1cnc(C)c1
IC50 (Gamma-secretase): 0.073 µM
Ratio [1]: 149

COc1cc(/C=C2\CCCN3CC(COCc4ccccc4)ON=C23)ccc1-n1cnc(C)c1 (racemic)
IC50 (Gamma-secretase): 0.25 µM
Ratio [1]: 80

COc1cc(/C=C2\CCCN3C[C@H](c4cc(F)c(F)c(F)c4)ON=C23)ccc1-n1cnc(C)c1
AUC(0-t) at 6 h [2]: 24.3 µM·h
IC50 (Gamma-secretase): 0.048 µM
Activity [17]: Not Active
inhibition in vivo at 10 mg/kg (Rattus norvegicus [4]): 45%
inhibition (INH) [18]: Not Active
Ratio [1]: 328
Kp at 6 h [6]: 1
concentration at 6 h [7]: 1880 ng/g
inhibition at 10 µM (hERG (KCNH2)): 83%

COc1cc(/C=C2\CCCN3C2=NOC3(CO)c2ccc(F)cc2)ccc1-n1cnc(C)c1 (stereo not drawn)
IC50 (Gamma-secretase): 0.075 µM
Ratio [1]: 289

COc1cc(/C=C2\CCCN3C2=NOC[C@@H]3CNC(=O)c2cccc(Cl)c2)ccc1-n1cnc(C)c1
IC50 (Gamma-secretase): 0.82 µM
Ratio [1]: 24

COc1cc(/C=C2\CCCN3C2=NO[C@]3(CO)c2ccc(F)cc2)ccc1-n1cnc(C)c1
IC50 (Gamma-secretase): 0.029 µM
Ratio [1]: 488

COc1cc(/C=C2\CCCN3C2=NOC[C@@H]3C(C)(C)C)ccc1-n1cnc(C)c1
IC50 (Gamma-secretase): 0.12 µM
Ratio [1]: 162

COc1cc(/C=C2\CCCN3C(=O)CON=C23)ccc1-n1cnc(C)c1
IC50 (Gamma-secretase): 2.5 µM
Ratio [1]: 8

COc1cc(/C=C2\CCCN3CC(CO)ON=C23)ccc1-n1cnc(C)c1 (racemic)
IC50 (Gamma-secretase): 5.4 µM
Ratio [1]: 4

COc1cc(/C=C2\CCCN3C2=NOCC3(C)c2ccc(F)cc2)ccc1-n1cnc(C)c1 (racemic)
IC50 (Gamma-secretase): 0.23 µM
Ratio [1]: 69

COc1cc(/C=C2\O[C@H](C)CN3C2=NOC[C@@H]3c2cc(F)c(F)c(F)c2)ccc1-n1cnc(C)c1
IC50 (Gamma-secretase): 0.011 µM
inhibition in vivo at 10 mg/kg (Rattus norvegicus [4]): 60%
Ratio [1]: 1170

COc1cc(/C=C2\CCCN3C2=NOC[C@@H]3c2cc(F)cc(Cl)c2)ccc1-n1cnc(C)c1
AUC(0-t) at 6 h [2]: 24.6 µM·h
IC50 (Gamma-secretase): 0.039 µM
concentration at 3 h [3]: 7.2 µM
inhibition in vivo at 10 mg/kg (Rattus norvegicus [4]): 62%
Ratio [1]: 507
Kp at 6 h [6]: 1.1
concentration at 6 h [7]: 1340 ng/g

COc1cc(/C=C2\CCCN3CCON=C23)ccc1-n1cnc(C)c1
IC50 (Gamma-secretase): 3.1 µM
Ratio [1]: 7

COc1cc(/C=C2\CCCN3C2=NOC[C@@H]3COCc2ccccc2)ccc1-n1cnc(C)c1
IC50 (Gamma-secretase): 0.1 µM
Ratio [1]: 120

COc1cc(/C=C2\CCCN3C2=NOC[C@@H]3c2ccccc2)ccc1-n1cnc(C)c1
AUC(0-t) at 6 h [2]: 17.6 µM·h
IC50 (Gamma-secretase): 0.087 µM
concentration at 3 h [3]: 6.2 µM
inhibition in vivo at 10 mg/kg (Rattus norvegicus [4]): 39%
Ratio [1]: 210
concentration at 3 h [5]: 2.8 µM
Kp at 6 h [6]: 0.9
concentration at 6 h [7]: 539 ng/g

COc1cc(/C=C2\CCCN3CC(COc4ccccc4)ON=C23)ccc1-n1cnc(C)c1 (racemic)
IC50 (Gamma-secretase): 0.14 µM
Ratio [1]: 147
